Measured values: the supplement of paper PMC10627819

Assays:
[1] = tested on: B. subtilis 168; assay: Bliss interaction score (quartile over a dose matrix) (fitness difference); higher = more antagonism (negative = synergy)
Summary of the method: (§1)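 The Bliss score is observed fitness minus expected fitness, where the expected value is the product of single-drug fitness values inferred from combination data. Fitness is OD595 at entry into stationary phase normalised to the plate's robust no-drug mean and capped at 1. Scores are reported as quartiles spanning technical, biological and donor/recipient replicates.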

[2] = tested on: S. aureus DSM 20231; assay: as above
Summary of the method: as §1

[3] = tested on: S. aureus Newman; assay: as above
Summary of the method: as §1

[4] = tested on: S. pneumoniae D39V; assay: as above
Summary of the method: as §1

[5] = tested on: B. subtilis 168; assay: fitness (endpoint OD595 vs no drug) (fraction); higher = more growth
Summary of the method: (§2)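 Growth medium was TSB, LB Lennox or CY, and plates were kept at 37 °C. Inoculation was at OD595 0.01 in 384-well plates, at 30 µl per well or 55 µl for S. pneumoniae. OD595 was monitored every 30 min for 14 h and background-subtracted using the first reading. Fitness is the optical density on entering stationary phase divided by the robust mean of no-drug controls, with values capped at 1.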

[6] = tested on: S. aureus Newman; assay: as above; conditions: one replicate
Summary of the method: as §2
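For Bliss interaction score (quartile over a dose matrix) in this document: first quartile when negative (synergy) and third quartile when positive (antagonism).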
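For fitness (endpoint OD595 vs no drug) in this document: OD595 on entry to stationary phase over no-drug wells; at most 1.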

CO/N=C(\C(=O)N[C@@H]1C(=O)N2C(C(=O)O)=C(COC(N)=O)CS[C@H]12)c1ccco1 [Cefuroxime] + Cc1onc(-c2ccccc2)c1C(=O)N[C@@H]1C(=O)N2[C@@H]1SC(C)(C)[C@@H]2C(=O)O [Oxacillin]
Conditions | Bliss interaction score
[1] | -0.0556
[2] | 0.0493
[3] | -0.0271
[4] | -0.115

fitness, [5], one replicate
Conditions | partner 0.002 µg/mL | partner 0.004 µg/mL | partner 0.0078 µg/mL | partner 0.008 µg/mL | partner 0.0155 µg/mL | partner 0.031 µg/mL | partner 0.075 µg/mL | partner 0.15 µg/mL | partner 0.3 µg/mL
first compound 0.04875 µg/mL | 0.882 | 0.858 | 0.556 | 0.979 | 0.507 | 0.507 | – | – | –
first compound 0.0975 µg/mL | 0.734 | 0.866 | 0.506 | 0.881 | 0.454 | 0.486 | – | – | –
first compound 0.195 µg/mL | 0.739 | 0.705 | 0.375 | 0.717 | 0.344 | 0.367 | 0.0418 | 0.0405 | 0.0333
first compound 0.39 µg/mL | – | – | – | – | – | – | 0.0582 | 0.0174 | 0.0294
first compound 0.78 µg/mL | – | – | – | – | – | – | 0.0387 | 0.0089 | 0.0244
first compound 1.562 µg/mL | 0.239 | 0.138 | – | 0.111 | – | – | – | – | –
first compound 3.125 µg/mL | 0.137 | 0.129 | – | 0.0905 | – | – | – | – | –
first compound 6.25 µg/mL | 0.11 | 0.1 | – | 0.0957 | – | – | – | – | –

fitness, [6]
Conditions | first compound 0.04875 µg/mL | first compound 0.0975 µg/mL | first compound 0.195 µg/mL
partner 0.0156 µg/mL | 0.813 | 0.766 | 0.754
partner 0.0312 µg/mL | 0.714 | 0.671 | 0.694
partner 0.0625 µg/mL | 0.447 | 0.436 | 0.323

CO/N=C(\C(=O)N[C@@H]1C(=O)N2C(C(=O)O)=C(COC(N)=O)CS[C@H]12)c1ccco1 [Cefuroxime] + COc1cccc2c1C(=O)c1c(O)c3c(c(O)c1C2=O)C[C@@](O)(C(=O)CO)C[C@@H]3O[C@H]1C[C@H](N)[C@H](O)[C@H](C)O1 [Doxorubicin]
Conditions | Bliss interaction score
[1] | -0.158
[2] | 0.0859
[3] | -0.0601
[4] | -0.0401

fitness
Conditions | first compound 0.04875 µg/mL | first compound 0.0975 µg/mL | first compound 0.195 µg/mL
[5], partner 0.625 µg/mL | 0.667 | 0.575 | 0.343
[5], partner 1.25 µg/mL | 0.63 | 0.528 | 0.288
[5], partner 2.5 µg/mL | 0.371 | 0.293 | 0.025
[6], partner 0.625 µg/mL | 0.891 | 0.873 | 0.784
[6], partner 1.25 µg/mL | 0.854 | 0.753 | 0.682
[6], partner 2.5 µg/mL | 0.735 | 0.617 | 0.659

fitness, [5], one replicate
Conditions | first compound 0.39 µg/mL | first compound 0.78 µg/mL | first compound 1.562 µg/mL | first compound 3.125 µg/mL | first compound 6.25 µg/mL
partner 0.625 µg/mL | 0.264 | 0.272 | 0.365 | 0.208 | 0.142
partner 1.25 µg/mL | 0.25 | 0.17 | 0.0862 | 0.0711 | 0.0435
partner 2.5 µg/mL | 0.018 | 0.0243 | 0.0327 | 0.0359 | 0.0405

CO/N=C(\C(=O)N[C@@H]1C(=O)N2C(C(=O)O)=C(COC(N)=O)CS[C@H]12)c1ccco1 [Cefuroxime] + C[n+]1ccc(-c2cc[n+](C)cc2)cc1 [Paraquat]
Conditions | Bliss interaction score
[1] | -0.0801
[2] | 0.0764
[3] | -0.0456
[4] | -0.0322

fitness
Conditions | first compound 0.04875 µg/mL | first compound 0.0975 µg/mL | first compound 0.195 µg/mL
[5], partner 1.25 µg/mL | 0.705 | 0.633 | 0.539
[5], partner 2.5 µg/mL | 0.682 | 0.625 | 0.522
[5], partner 5 µg/mL | 0.632 | 0.584 | 0.366
[6], partner 1.25 µg/mL | 0.955 | 0.906 | 0.963
[6], partner 2.5 µg/mL | 0.88 | 0.924 | 0.937
[6], partner 5 µg/mL | 0.993 | 0.907 | 0.939

fitness, [5], one replicate
Conditions | first compound 1.562 µg/mL | first compound 3.125 µg/mL | first compound 6.25 µg/mL
partner 1.25 µg/mL | 0.224 | 0.144 | 0.0805
partner 2.5 µg/mL | 0.179 | 0.131 | 0.0628
partner 5 µg/mL | 0.147 | 0.0619 | 0.0182

CO/N=C(\C(=O)N[C@@H]1C(=O)N2C(C(=O)O)=C(COC(N)=O)CS[C@H]12)c1ccco1 [Cefuroxime] + C[C@@H]1O[C@@H]1P(=O)(O)O [Fosfomycin]
Conditions | Bliss interaction score
[1] | -0.0716
[2] | 0.0278
[3] | 0.0983
[4] | 0.0411

fitness
Conditions | first compound 0.04875 µg/mL | first compound 0.0975 µg/mL | first compound 0.195 µg/mL
[5], partner 1.562 µg/mL | 0.464 | 0.419 | 0.39
[5], partner 3.124 µg/mL | 0.363 | 0.337 | 0.28
[5], partner 6.248 µg/mL | 0.293 | 0.245 | 0.194
[6], partner 0.781 µg/mL | 0.803 | 0.7 | 0.632
[6], partner 1.562 µg/mL | 0.56 | 0.508 | 0.438
[6], partner 3.124 µg/mL | 0.12 | 0.0863 | 0.0573

fitness, [5], one replicate
Conditions | first compound 0.39 µg/mL | first compound 0.78 µg/mL | first compound 1.562 µg/mL | first compound 3.125 µg/mL | first compound 6.25 µg/mL
partner 1.562 µg/mL | 0.344 | 0.301 | 0.179 | 0.136 | 0.113
partner 3.124 µg/mL | 0.331 | 0.235 | 0.17 | 0.122 | 0.133
partner 6.248 µg/mL | 0.189 | 0.131 | 0.0925 | 0.0543 | 0.0496

CO/N=C(\C(=O)N[C@@H]1C(=O)N2C(C(=O)O)=C(COC(N)=O)CS[C@H]12)c1ccco1 [Cefuroxime] + Cc1ncc([N+](=O)[O-])n1CCO [Metronidazole]
Conditions | Bliss interaction score
[1] | 0.0643
[2] | 0.132
[3] | -0.0487
[4] | -0.0335

fitness
Conditions | partner 0.625 µg/mL | partner 1.25 µg/mL | partner 2.5 µg/mL
[5], first compound 0.04875 µg/mL | 0.741 | 0.767 | 0.715
[5], first compound 0.195 µg/mL | 0.547 | 0.515 | 0.497
[6], first compound 0.04875 µg/mL | ≥ 1 | 0.923 | 0.993
[6], first compound 0.0975 µg/mL | 0.897 | 0.939 | 0.918
[6], first compound 0.195 µg/mL | 0.943 | 0.978 | 0.921

fitness, [5], one replicate
Conditions | first compound 1.562 µg/mL | first compound 3.125 µg/mL | first compound 6.25 µg/mL
partner 0.625 µg/mL | 0.428 | 0.372 | 0.251
partner 1.25 µg/mL | 0.376 | 0.268 | 0.242
partner 2.5 µg/mL | 0.287 | 0.219 | 0.15
